Values of other authors in the CATMoS acute toxicity set (Mansouri et al. 2021).
Several values for one entry are separate records, joined by “and”; a condition that tells them apart may be missing. Equal entries are not always repeated.

Test: rat acute oral toxicity
Conditions: in vivo

SMILES | LD50
CCCCC(=O)OCC(=O)[C@H]1[C@H](C)C[C@H]2[C@@H]3C[C@H](F)C4=CC(=O)C=C[C@]4(C)[C@@]3(F)[C@@H](O)C[C@@]21C | 3100 mg/kg
CC(=O)OCC(COc1ccccc1)OC(C)=O (stereo not given) | 5250 mg/kg
CP(C)(=O)CN1C(=O)CN=C(c2ccccc2)c2cc(Cl)ccc21 | 3110 mg/kg
CN1CCOC(c2ccccc2)c2ccccc2C1 (stereo not given) | 80 mg/kg
CCCOC(C(=O)OC1CCN(C)CC1)(c1ccccc1)c1ccccc1 | 2250 mg/kg
CCC(C)(C)OC(=O)Nc1ccco1 | 190 mg/kg
O=NN1CCCCCC1 | 336 mg/kg
CC(C)(C)CC(C)(C)S | 52 mg/kg
CN(CCc1ccccc1)N=O | 48 mg/kg
CC(C)c1ccccc1N | 1180 mg/kg
CCOP(=S)(OCC)SCSCSP(=S)(OCC)OCC | 8.5 mg/kg
CCC(=O)OCc1ccc(OC)cc1 | 3330 mg/kg
Nc1ccc(O)c2c1C(=O)c1c(O)cc(-c3ccc(O)cc3)c(N)c1C2=O | 6380 mg/kg
Nc1ccc(-c2ccccc2N)cc1 | 311 mg/kg
CCC(C)(CC)c1cc(N)on1 | 144 mg/kg
CN(Sc1ccc(F)cc1)C(=O)Oc1cccc2c1OC(C)(C)C2 | 25 mg/kg
CC1=CCC2CC1(S)C2(C)C (stereo not given) | 3000 mg/kg
c1ccc(P(c2ccccc2)c2ccccc2)cc1 | 700 mg/kg
O=C(O)C1CC=CCC1 (stereo not given) | 4260 mg/kg
O=[N+]([O-])c1ccc(O)cc1 | 320 mg/kg
CC(C)n1nc(-c2cccc(Cl)c2Cl)c(N)nc1=N | 229 mg/kg
[O-][N+](=Nc1ccccc1)c1ccccc1 | 620 mg/kg
CSC(C)=NOC(=O)N(C)SN(C(C)C)P1(=S)OCCCO1 | 600 mg/kg
N=C(O)CCC/N=C(\c1ccc(Cl)cc1)c1cc(F)ccc1O | 1350 mg/kg

SMILES | LD50
Cc1ccc2[nH]nnc2c1 | 1600 mg/kg
CCN(CC)c1ccccc1 | 782 mg/kg
CCOC(=O)N1CCC=C(C=NOC)C1 | 200 mg/kg
Cc1ccc2ccccc2n1 | 1230 mg/kg
C=CC(=O)NC | 476 mg/kg
CC(c1ccc(C(F)(F)F)nc1)S(C)(=O)=NC#N (stereo not given) | 1000 mg/kg
CC(=O)OCOC(=O)C1=C(COC(N)=O)SC2C(C(C)O)C(=O)N12 (stereo not given) | 7230 mg/kg
Cc1oc(C)c(C(=O)Nc2ccccc2)c1C | 1470 mg/kg
CNC(=O)Oc1cccc(C(C)C)c1Cl | 35 mg/kg
O=C(O)c1ccccc1Nc1cccc(Cl)c1CO | 2400 mg/kg
OC[C@@H](O)[C@@H](O)[C@H](O)[C@@H](O)CO | 15900 mg/kg
CNC(=O)Oc1cccc2c1OC(C)(C)CC2 | 3 mg/kg
FC(F)(F)c1nc2c(Cl)cc(I)cc2[nH]1 | 1.44 mg/kg
CCCCC | 400 mg/kg
Clc1ccc(N2CCN(C/C=C/c3ccccc3)CC2)nn1 | 483 mg/kg
CN(C)c1ncnc2c1ncn2CC1CC1 | 570 mg/kg
CN1C(=O)C2C3C=C(C(O)(c4ccccc4)c4ccccn4)C(C3=C(c3ccccc3)c3ccccn3)C2C1=O (stereo not given) | 12 mg/kg
Nc1cc(Cl)c(N)cc1Cl | 1750 mg/kg
CCOP(=S)(OCC)OC(C)C | 1000 mg/kg
CC1=NN(c2ccccc2)C(=O)C1 | 1920 mg/kg
CS(=O)(=O)OCCCN(CCCOS(C)(=O)=O)Cc1ccccc1 | 375 mg/kg
COc1ccccc1OC(=O)CNC(=O)Cc1ccc(C(=O)c2ccc(C)cc2)n1C | 1450 mg/kg
CCCCC(O)CC (stereo not given) | 1870 mg/kg
COCCOCCOCCOC(C)=O | 11000 mg/kg

SMILES | LD50
O=C(O)CSc1cccc2cccc(CCl)c12 | 2500 mg/kg
CS(=O)(=O)c1ccc(Cl)cc1 | 400 mg/kg
COc1ccc(CCNCC(O)COc2ccc(OCC(C)=O)c3c2CCC(=O)N3)cc1OC (stereo not given) | 1260 mg/kg
CCOP(=S)(OCC)Oc1cc(Cl)c(I)cc1Cl | 140 mg/kg
COC(COC(N)=O)C1=C(N2CC2)C(=O)C(C)=C(N2CC2)C1=O (stereo not given) | 27.3 mg/kg
COc1ccc(O)c(C(N)=O)c1 | 1900 mg/kg
COP(=S)(OC)SCC(=O)O | 2500 mg/kg
CC(=O)CCCO | 6400 mg/kg
Nc1c(Br)cc([N+](=O)[O-])cc1[N+](=O)[O-] | 4100 mg/kg
CCCCCCCCCCCCCCSC#N | 15000 mg/kg
CC(C)(C)NC[C@H](O)COc1ccccc1C1CCCC1 | 1260 mg/kg
O=[n+]1c2c(n([O-])c3ccccc31)CCCC2 | 1360 mg/kg
CC(Cc1ccccc1)OC(N)=O (stereo not given) | 1100 mg/kg
CN(C)C(=O)c1cccc(-c2ccccc2)c1O | 1900 mg/kg
CCOc1ccc(C(=O)COC(=O)CCC(=O)O)c2ccccc12 | 3500 mg/kg
CN | 1600 mg/kg
OCc1c(F)c(F)c(F)c(F)c1F | 900 mg/kg
CN(C(=O)CF)c1cccc2ccccc12 | 67 mg/kg
CNC(=O)Oc1ccc(Cl)c2c1OC(C)(C)C2 | 248 mg/kg
C=C(C)c1ccc(C(C)(C)N=C=O)cc1 | 4400 mg/kg
CNC(=O)Oc1cc(C(C)C)c(OC(=O)NC)cc1C | 60 mg/kg
c1cc(OCC2CO2)ccc1CC1CO1 (stereo not given) | 4290 mg/kg
CC1(C)Cc2cccc(OC(=O)NCSc3ccc(Cl)cc3)c2O1 | 25 mg/kg
CN(C)CCC1(c2ccccc2)C=Cc2ccccc21 (stereo not given) | 385 mg/kg

SMILES | LD50
CN(C)N=Nc1ccc(C(=O)O)cc1 | 320 mg/kg
CCC1CCCC(CC)C1N (stereo not given) | 157 mg/kg
CCCc1ccc(C=O)cc1 | 1600 mg/kg
CCOC(=O)C(CCc1ccccc1)NC(C)C(=O)N1C(C(=O)O)CC2CCCCC21 (stereo not given) | 2500 mg/kg
CN[C@@H]1[C@H](O[C@H]2[C@H](O[C@H]3[C@H](O)[C@@H](O)[C@H](NC(=N)N)[C@@H](O)[C@@H]3NC(=N)N)O[C@@H](C)[C@]2(O)C=O)O[C@@H](CO)[C@H](O)[C@H]1O | 9000 mg/kg
NC(CO)C(=O)NNCc1ccc(O)c(O)c1O (stereo not given) | 5300 mg/kg
CCCSP(=O)(OC)SCCC | 6.8 mg/kg
CC(O)CN(C)c1ccc(NN)nn1 (stereo not given) | 1230 mg/kg
CC(=O)C(/N=N/c1ccc(-c2ccc(/N=N/C(C(C)=O)C(=O)Nc3ccccc3)c(Cl)c2)cc1Cl)C(=O)Nc1ccccc1 (stereo not given) | 2230 mg/kg
Nc1cc(Cl)c([N+](=O)[O-])cc1Cl | 2820 mg/kg
CCCN=C(C(OC)c1ccccc1)N1CCCCCC1 (stereo not given) | 55 mg/kg
CCN(CC)CCN(CCN(CC)CC)n1cc(-c2ccc(Cl)cc2)c2cc(Cl)ccc21 | 780 mg/kg
CCCCCCCCOC(C[n+]1ccccc1)c1ccc(C(C)(C)C)cc1 (stereo not given) | 250 mg/kg
CCCOP(=S)(OCCC)Oc1ccc(S(C)=O)cc1 (stereo not given) | 50 mg/kg
CCOP(=O)(OC=C(Cl)Cl)OCC(Cl)CCl (stereo not given) | 66 mg/kg
FC(F)(F)c1nc2ccc(I)cc2[nH]1 | 96 mg/kg
Nc1nc(N)c2nc(-c3ccccc3)c(N)nc2n1 | 400 mg/kg
CCCC(Cc1ccccc1)N1CCCC1 (stereo not given) | 278 mg/kg and 157 mg/kg
CC(=O)SCC[N+](C)(C)C | 100 mg/kg
Clc1ccc(S/N=N/c2cc(Cl)c(Cl)cc2Cl)cc1 | 4000 mg/kg
CN(C)C/C=C(/c1ccc(Br)cc1)c1cccnc1 | 900 mg/kg and 844 mg/kg
OC(CCl)CNCCNCC(O)CCl (stereo not given) | 1000 mg/kg
CC1CC(C)(C)OB(OC(C)CC(C)(C)OB2OC(C)CC(C)(C)O2)O1 (stereo not given) | 4720 mg/kg
CC1(C)C2CCC(C=O)C1C2 (stereo not given) | 2300 mg/kg

SMILES | LD50
C=CCN(CC=C)C(=O)CSP(=S)(OCC)OCC | 48 mg/kg
CCC(C)C(CN(C)C)c1ccc(Cl)cc1Cl (stereo not given) | 567 mg/kg
CC1=CC[C@@H]2C[C@@H](C[C@]3(CC[C@H](C)[C@@H](C)O3)O2)OC(=O)[C@@H]2C=C(C)[C@@H](O)[C@H]3OCC(=CC=C[C@H](C)C1)[C@]32O | 456 mg/kg
O=S1(=O)CC(Cl)(Cl)C(Cl)(Cl)C1 | 87 mg/kg
CC(=O)Nc1ccc(CC(=O)O)cc1 | 14800 mg/kg
O=S(=O)(O)c1ccc2c(c1)-c1nc-2nc2[nH]c(nc3nc(nc4[nH]c(n1)c1ccccc41)-c1ccccc1-3)c1ccccc21 | 3600 mg/kg
C=CCON/C(CCC)=C1\C(=O)CC(C)(C)C(C(=O)OC)C1=O (stereo not given) | 2260 mg/kg
Fc1cc2[nH]c(C(F)(F)F)nc2cc1Cl | 8.66 mg/kg
CCOP(=O)(OCC)SC | 47.1 mg/kg
CCCCC(CC)COC(CBr)c1cccc(C2CCCCC2)c1 (stereo not given) | 250 mg/kg
Cl[C@H]1[C@H](Cl)[C@@H](Cl)[C@H](Cl)[C@@H](Cl)[C@H]1Cl (racemic) | 1000 mg/kg
FC(F)(F)c1nc2cc(Br)c(Cl)cc2[nH]1 | 9.04 mg/kg
ClC(Cl)=C(c1ccc(Cl)cc1)c1ccc(Cl)cc1 | 880 mg/kg
CCOC(C(=O)O)(c1ccccc1)c1ccccc1 | 1000 mg/kg
CC(C)CC(CCN(C(C)C)C(C)C)(C(N)=O)c1ccccn1 (stereo not given) | 1100 mg/kg
CN1CCCCC1CCN1c2ccccc2Sc2ccc(S(C)=O)cc21 (stereo not given) | 644 mg/kg
O=S(=O)(O)c1ccc2c(/N=N\c3ccc(S(=O)(=O)O)c4ccccc34)c(O)c(S(=O)(=O)O)cc2c1 | 6000 mg/kg
CNS(=O)(=O)OCC(=O)N1CCCCCC1 | 2040 mg/kg
NCCOS(N)(=O)=O | 7460 mg/kg
O=S1c2ccccc2N(CCCN2CCN(CCO)CC2)c2cc(Cl)ccc21 (stereo not given) | 1000 mg/kg
CCN1C(=O)c2ccccc2C1Nc1ccc(OCCN2CCCCC2)cc1 (stereo not given) | 695 mg/kg
CCOC(C1=NCC(O)CN1)c1ccccc1 (stereo not given) | 1750 mg/kg
CCCC1OCS/C1=N\OC(O)=NC (stereo not given) | 83 mg/kg
CCCCCCCCCCOS(=O)(=O)O | 1950 mg/kg

SMILES | LD50
O=S1OC[C@@H]2[C@H](CO1)[C@]1(Cl)C(Cl)=C(Cl)[C@@]2(Cl)C1(Cl)Cl (stereo not given in full) | 76 mg/kg
CC1COC2(c3ccccc3Cl)c3cc(Cl)ccc3NC(=O)CN12 (stereo not given) | 4500 mg/kg
CC(O)C(=O)O (stereo not given) | 2100 mg/kg
COc1ccc(OC)cc1 | 3600 mg/kg
CC(CC(c1ccccc1)c1ccccc1)NC(C)(C)C (stereo not given) | 465 mg/kg
COc1ccc(CCNC[C@H](O)c2ccc(O)cc2)cc1OC | 9370 mg/kg
C=C(C#N)OC(C)=O | 100 mg/kg
COP(=S)(OC)SCn1nc(-c2ccccc2)ccc1=O | 18800 mg/kg
CCOP(=S)(OCC)Oc1cc(C)n(C)c(=O)c1 | 5.97 mg/kg
CCN1CCCC1CNC(=O)c1cc(S(=O)(=O)CC)ccc1OC (stereo not given) | 2100 mg/kg
CCSC(=O)COc1ccc(Cl)cc1C | 790 mg/kg
CC[N+](C)(C)CCO | 6930 mg/kg
C/C(=N/Nc1nc(C)cc(C)n1)c1ccccc1C | 525 mg/kg
CCCC(C)(Oc1ccc(Cc2ccc(Cl)cc2)cc1)C(=O)OCc1cccnc1 (stereo not given) | 10000 mg/kg
Cc1c(Cl)c(=O)oc2cc(OP(=O)(OCCCCl)OCCCCl)ccc12 | 211 mg/kg
CC12CCC(CC1=O)C2(C)C=O (stereo not given) | 3100 mg/kg
CC(C)=CCN1CC[C@@]2(C)c3cc(O)ccc3C[C@@H]1[C@@H]2C (racemic) | 1110 mg/kg
C=CCc1ccc2c(c1)OCO2 | 1950 mg/kg
COC(C)CO (stereo not given) | 5710 mg/kg
COc1cc(N)c(Cl)cc1C(=O)NC1CCNCC1 | 2550 mg/kg
